Results as given in ChEMBL document CHEMBL1201862, “PubChem BioAssay data set” (2004).
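Cultured in 96-well plates, cells were exposed to test compound for 48 hours across five concentrations. Abbreviation: GI50, concentration required for 50% inhibition of growth.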 Activity calls are given as the source filed them. Rule as the data show it: active = GI50 up to about 1.1 µM and inactive = higher.

Key:
Assay in all cases: NCI-60 cell line screen, 48 h
786-0 = test system: 786-0
A549 = test system: A549
ACHN = test system: ACHN
CAKI-1 = test system: CAKI-1
CCRF-CEM = test system: CCRF-CEM
EKVX = test system: EKVX
HCC 2998 = test system: HCC 2998
HT-29 = test system: HT-29
KM12 = test system: KM12
MDA-MB-231 = test system: MDA-MB-231
NCI-H460 = test system: NCI-H460
NCI-H522 = test system: NCI-H522
OVCAR-5 = test system: OVCAR-5
OVCAR-8 = test system: OVCAR-8
SF-268 = test system: SF-268
SK-MEL-5 = test system: SK-MEL-5
SNB-19 = test system: SNB-19
TK-10 = test system: TK-10
UACC-257 = test system: UACC-257
UO-31 = test system: UO-31

| SMILES | GI50 (786-0) | GI50 (A549) | GI50 (ACHN) | GI50 (CAKI-1) | GI50 (CCRF-CEM) | GI50 (EKVX) | GI50 (HCC 2998) | GI50 (HT-29) | GI50 (KM12) | GI50 (MDA-MB-231) | GI50 (NCI-H460) | GI50 (NCI-H522) | GI50 (OVCAR-5) | GI50 (OVCAR-8) | GI50 (SF-268) | GI50 (SK-MEL-5) | GI50 (SNB-19) | GI50 (TK-10) | GI50 (UACC-257) | GI50 (UO-31) |
| --- | --- | --- | --- | --- | --- | --- | --- | --- | --- | --- | --- | --- | --- | --- | --- | --- | --- | --- | --- | --- |
| CC(C)C(=O)C(C)(C)CCc1ccccn1 | > 100 µM (inactive) | > 100 µM (inactive) | > 100 µM (inactive) | > 100 µM (inactive) | > 100 µM (inactive) | > 100 µM (inactive) | > 100 µM (inactive) | > 100 µM (inactive) | > 100 µM (inactive) | > 100 µM (inactive) | > 100 µM (inactive) | > 100 µM (inactive) | > 100 µM (inactive) | > 100 µM (inactive) | > 100 µM (inactive) | > 100 µM (inactive) | > 100 µM (inactive) | > 100 µM (inactive) | > 100 µM (inactive) | > 100 µM (inactive) |
| Cc1nc(N)nc(S)c1CCC(=O)O | > 100 µM (inactive) | > 100 µM (inactive) | > 100 µM (inactive) | > 100 µM (inactive) | > 100 µM (inactive) | > 100 µM (inactive) | > 100 µM (inactive) | > 100 µM (inactive) | > 100 µM (inactive) | > 100 µM (inactive) | > 100 µM (inactive) | > 100 µM (inactive) | > 100 µM (inactive) | > 100 µM (inactive) | > 100 µM (inactive) | > 100 µM (inactive) | > 100 µM (inactive) | > 100 µM (inactive) | > 100 µM (inactive) | > 100 µM (inactive) |
| COc1cc(C2SCC(=O)N2c2ccc(-n3c(-c4ccccc4)nc4ccccc4c3=O)cc2)ccc1O (stereo not given) | > 100 µM (inactive) | 74.8 µM (inactive) | > 100 µM (inactive) | > 100 µM (inactive) | 27.2 µM (inactive) | > 100 µM (inactive) | 58.3 µM (inactive) | > 100 µM (inactive) | 34.4 µM (inactive) | 97.9 µM (inactive) | 69.5 µM (inactive) | 33 µM (inactive) | > 100 µM (inactive) | > 100 µM (inactive) | 32.4 µM (inactive) | 49.3 µM (inactive) | > 100 µM (inactive) | > 100 µM (inactive) | > 100 µM (inactive) | 11.8 µM (inactive) |
| CN1CCN(CCn2c3c4ccccc4ccc3c3oc(=O)c4ccccc4c32)CC1 | 1.73 µM (inactive) | 3.97 µM (inactive) | 3.05 µM (inactive) | 4.97 µM (inactive) | 1.56 µM (inactive) | 12.7 µM (inactive) | 1.87 µM (inactive) | 1.36 µM (inactive) | 2.42 µM (inactive) | 1.8 µM (inactive) | 1.99 µM (inactive) | 4.55 µM (inactive) | 5.74 µM (inactive) | 1.52 µM (inactive) | 6 µM (inactive) | 1.78 µM (inactive) | 4.51 µM (inactive) | 10.5 µM (inactive) | 1.56 µM (inactive) | 2.19 µM (inactive) |
| CCCCCCCCCCCCc1ccsc1-c1ccc(-c2ccc(-c3sc(-c4cc(CCCCCCCCCCCC)c(-c5ccc(-c6ccc(-c7sccc7CCCCCCCCCCCC)s6)s5)s4)cc3CCCCCCCCCCCC)s2)s1 | > 100 µM (inactive) | > 100 µM (inactive) | > 100 µM (inactive) | > 100 µM (inactive) | 38.3 µM (inactive) | > 100 µM (inactive) | > 100 µM (inactive) | > 100 µM (inactive) | > 100 µM (inactive) | > 100 µM (inactive) | > 100 µM (inactive) | > 100 µM (inactive) | > 100 µM (inactive) | > 100 µM (inactive) | > 100 µM (inactive) | > 100 µM (inactive) | > 100 µM (inactive) | > 100 µM (inactive) | > 100 µM (inactive) | > 100 µM (inactive) |
| O=P(O)(O)CN1CCNCCN(CP(=O)(O)O)CC1 | 23 µM (inactive) | 15.2 µM (inactive) | > 100 µM (inactive) | > 90.6 µM (inactive) | 23.6 µM (inactive) | > 80.2 µM (inactive) | 12.3 µM (inactive) | 4.26 µM (inactive) | 28.6 µM (inactive) | 36 µM (inactive) | 11.3 µM (inactive) | 19.9 µM (inactive) | > 42.3 µM (inactive) | 28.4 µM (inactive) | 75.2 µM (inactive) | 14 µM (inactive) | > 100 µM (inactive) | > 49.4 µM (inactive) | > 55.3 µM (inactive) | > 100 µM (inactive) |
| c1ccc2c(c1)CCN1CCc3ccccc3C1C2 (stereo not given) | 25.1 µM (inactive) | 35.8 µM (inactive) | 77.6 µM (inactive) | 47.1 µM (inactive) | 58.7 µM (inactive) | 40.4 µM (inactive) | 31.4 µM (inactive) | 28.2 µM (inactive) | 52.1 µM (inactive) | 42.3 µM (inactive) | 44.6 µM (inactive) | 51.9 µM (inactive) | 38.4 µM (inactive) | 81.1 µM (inactive) | 32.2 µM (inactive) | 17.7 µM (inactive) | 82.8 µM (inactive) | 59.6 µM (inactive) | 62.4 µM (inactive) | 18.1 µM (inactive) |
| CCOC(=O)C(C(=O)OCC)C1C=CCC2c3ccccc3COCC21 (stereo not given) | > 100 µM (inactive) | 66.5 µM (inactive) | 40.2 µM (inactive) | 26.5 µM (inactive) | 36.1 µM (inactive) | 40.5 µM (inactive) | 52.5 µM (inactive) | 54.7 µM (inactive) | 33.6 µM (inactive) | > 100 µM (inactive) | 62.1 µM (inactive) | 24.5 µM (inactive) | > 100 µM (inactive) | 44.2 µM (inactive) | 67.5 µM (inactive) | 19.1 µM (inactive) | > 100 µM (inactive) | 98.2 µM (inactive) | 30.3 µM (inactive) | 43.9 µM (inactive) |
| Cc1ccc(S(=O)(=O)[C@@H](Cl)[C@H]2N=C(Cl)NN=C2c2ccccc2)cc1 | 26.4 µM (inactive) | 34.1 µM (inactive) | 33.7 µM (inactive) | 41.9 µM (inactive) | 20.3 µM (inactive) | 37.1 µM (inactive) | 33.8 µM (inactive) | 33.5 µM (inactive) | 22.6 µM (inactive) | 20.1 µM (inactive) | 37.1 µM (inactive) | 15.9 µM (inactive) | 85.9 µM (inactive) | 21.1 µM (inactive) | 18.3 µM (inactive) | 15.4 µM (inactive) | 37.8 µM (inactive) | 41.8 µM (inactive) | 20.6 µM (inactive) | 18.1 µM (inactive) |
| COC(=O)C1=C(C(=O)OC)N(c2ccc(OC)cc2[N+](=O)[O-])C(c2ccc(C)cc2)=CC1c1ccc(OC)cc1OC (stereo not given) | 11.9 µM (inactive) | 7.89 µM (inactive) | 18.7 µM (inactive) | 28 µM (inactive) | 3.86 µM (inactive) | 34.5 µM (inactive) | 8.28 µM (inactive) | 6.53 µM (inactive) | 4.27 µM (inactive) | 23.3 µM (inactive) | 24.5 µM (inactive) | 14.1 µM (inactive) | 34.5 µM (inactive) | 13.6 µM (inactive) | 32.9 µM (inactive) | 26.2 µM (inactive) | 34.7 µM (inactive) | 18.5 µM (inactive) | 23.1 µM (inactive) | 11.7 µM (inactive) |
| O=C(O)CC(C(=O)O)c1ccccc1[N+](=O)[O-] (stereo not given) | > 100 µM (inactive) | > 100 µM (inactive) | > 100 µM (inactive) | > 100 µM (inactive) | > 100 µM (inactive) | > 100 µM (inactive) | > 100 µM (inactive) | > 100 µM (inactive) | > 100 µM (inactive) | > 100 µM (inactive) | > 100 µM (inactive) | > 100 µM (inactive) | > 100 µM (inactive) | > 100 µM (inactive) | > 100 µM (inactive) | > 100 µM (inactive) | > 100 µM (inactive) | > 100 µM (inactive) | > 100 µM (inactive) | 2.62 µM (inactive) |
| CCSc1nnc(Sc2c3ccccc3nc3ccccc23)s1 | 2.84 µM (inactive) | > 60.7 µM (inactive) | 5.19 µM (inactive) | 5.33 µM (inactive) | 2.64 µM (inactive) | 11.6 µM (inactive) | 11.8 µM (inactive) | 7.67 µM (inactive) | 24.8 µM (inactive) | 18.8 µM (inactive) | 19.6 µM (inactive) | 2.37 µM (inactive) | 20 µM (inactive) | 20.3 µM (inactive) | 19.3 µM (inactive) | 15.6 µM (inactive) | 44.2 µM (inactive) | 6.18 µM (inactive) | 7.98 µM (inactive) | 10.7 µM (inactive) |
| COc1cc(OC)cc(C(=O)NC2=C(Cl)C(=O)c3ccccc3C2=O)c1 | 2.96 µM (inactive) | 4.34 µM (inactive) | 0.78 µM (active) | 5.4 µM (inactive) | 0.355 µM (active) | 9.75 µM (inactive) | 3.48 µM (inactive) | 4.67 µM (inactive) | 1.62 µM (inactive) | 4.08 µM (inactive) | 2.34 µM (inactive) | 0.728 µM (active) | 4.92 µM (inactive) | 3.1 µM (inactive) | 6.12 µM (inactive) | 2.04 µM (inactive) | 5.5 µM (inactive) | 2.81 µM (inactive) | 1.99 µM (inactive) | 3.15 µM (inactive) |
| CC(=O)Nc1ccc2c3c(cc(O)c2c1)N(C(=O)CCCCCCC(=O)N1CC(CCl)c2c1cc(O)c1cc(NC(C)=O)ccc21)CC3CCl (stereo not given) | < 0.01 µM (active) | 0.0113 µM (active) | < 0.01 µM (active) | < 0.0152 µM (active) | < 0.01 µM (active) | 0.0505 µM (active) | < 0.01 µM (active) | 0.0172 µM (active) | 0.0249 µM (active) | 0.0203 µM (active) | < 0.01 µM (active) | < 0.01 µM (active) | 0.0325 µM (active) | < 0.01 µM (active) | < 0.01 µM (active) | < 0.01 µM (active) | < 0.01 µM (active) | 0.0251 µM (active) | 0.0104 µM (active) | 0.0509 µM (active) |
